# Earlier results as cited in patent US20030133903A1, “Compositions for treatment of prostate cancers and methods of making and using the same” (priority 2001, published 2003).
# Tested on: LNCaP cell line
# Settings: already published reports
smiles,measurement,value
CC(=O)O[C@H]1C(=O)[C@@]2(C)[C@H]([C@H](OC(=O)c3ccccc3)[C@]3(O)C[C@H](OC(=O)[C@H](O)[C@@H](NC(=O)c4ccccc4)c4ccccc4)C(C)=C1C3(C)C)[C@]1(OC(C)=O)CO[C@@H]1C[C@@H]2O [paclitaxel],IC50,low nM or sub nM
